PubChem BioAssay AID1963845 (Molecular Pharmacology Branch, DTP, NCI, 2024)

Test system: 429239-143-T-J1-PDC complex spheroid viability
Experiment: Anticancer human tumor 429239-143-T-J1-PDC patient-derived small cell lung carcinoma cell line growth inhibition [POLQ]
Details: for IC50: curve of first compound; for viability, T/C: stronger effect = lower value
Procedure, shortened: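 PDC + HUVEC + MSC complex spheroids; POLQ inhibitors ± partner drugs; top conc. at/near clinical Cmax, else 10 microM (SN-38 1 microM), half-log dilutions; 37 degrees C, 5% CO2.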

[1] = second compound 0.0316 µM, first compound 0.0316 µM
[2] = second compound 0.0316 µM, first compound 0.1 µM
[3] = second compound 0.1 µM, first compound 0.0316 µM
[4] = second compound 0.1 µM, first compound 0.1 µM
[5] = second compound 0.316 µM, first compound 0.0316 µM
[6] = second compound 0.316 µM, first compound 0.1 µM
[7] = second compound 1 µM, first compound 0.0316 µM
[8] = second compound 1 µM, first compound 0.1 µM
[9] = second compound 3.16 µM, first compound 0.0316 µM
[10] = second compound 3.16 µM, first compound 0.1 µM
[11] = second compound 10 µM, first compound 0.0316 µM
[12] = second compound 10 µM, first compound 0.1 µM
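Also: luminescence signal used as surrogate measure of viable cells; spheroids exposed to compounds for seven days before readout.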
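For viability, T/C in this document: 100% = DMSO vehicle control viability as luminescence relative to vehicle.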

CC(=O)O[C@H]1C(=O)[C@@]2(C)[C@H]([C@H](OC(=O)c3ccccc3)[C@]3(O)C[C@H](OC(=O)[C@H](O)[C@@H](NC(=O)c4ccccc4)c4ccccc4)C(C)=C1C3(C)C)[C@]1(OC(C)=O)CO[C@@H]1C[C@@H]2O + Nc1ccc(C#CCN(C(=O)Cc2ncc(C(F)(F)F)cc2C(F)(F)F)c2ccc(F)cc2)nn1
IC50 (second compound 0.0316 µM): 14.4 nM | IC50 (second compound 0.1 µM): 14.4 nM | IC50 (second compound 0.316 µM): 14 nM | IC50 (second compound 1 µM): 15.3 nM | IC50 (second compound 3.16 µM): 14.2 nM | IC50 (second compound 10 µM): 13.2 nM | viability, T/C (second compound 0.0316 µM, first compound 0.00949 µM): 65.6% | viability, T/C (second compound 0.0316 µM, first compound 0.03 µM): 20.2% | viability, T/C (second compound 0.0316 µM, first compound 0.0949 µM): 16% | viability, T/C (second compound 0.0316 µM, first compound 0.3 µM): 16.2% | viability, T/C (second compound 0.0316 µM, first compound 0.949 µM): 26.6% | viability, T/C (second compound 0.0316 µM, first compound 3 µM): 32.6% | viability, T/C (second compound 0.1 µM, first compound 0.00949 µM): 67% | viability, T/C (second compound 0.1 µM, first compound 0.03 µM): 18.6% | viability, T/C (second compound 0.1 µM, first compound 0.0949 µM): 15.9% | viability, T/C (second compound 0.1 µM, first compound 0.3 µM): 17.1% | viability, T/C (second compound 0.1 µM, first compound 0.949 µM): 22.2% | viability, T/C (second compound 0.1 µM, first compound 3 µM): 24.6% | viability, T/C (second compound 0.316 µM, first compound 0.00949 µM): 64.2% | viability, T/C (second compound 0.316 µM, first compound 0.03 µM): 22.6% | viability, T/C (second compound 0.316 µM, first compound 0.0949 µM): 16% | viability, T/C (second compound 0.316 µM, first compound 0.3 µM): 17.1% | viability, T/C (second compound 0.316 µM, first compound 0.949 µM): 19.8% | viability, T/C (second compound 0.316 µM, first compound 3 µM): 26.2% | viability, T/C (second compound 1 µM, first compound 0.00949 µM): 71% | viability, T/C (second compound 1 µM, first compound 0.03 µM): 18.2% | viability, T/C (second compound 1 µM, first compound 0.0949 µM): 14.8% | viability, T/C (second compound 1 µM, first compound 0.3 µM): 17.5% | viability, T/C (second compound 1 µM, first compound 0.949 µM): 25.2% | viability, T/C (second compound 1 µM, first compound 3 µM): 24% | viability, T/C (second compound 3.16 µM, first compound 0.00949 µM): 67% | viability, T/C (second compound 3.16 µM, first compound 0.03 µM): 16.2% | viability, T/C (second compound 3.16 µM, first compound 0.0949 µM): 15.4% | viability, T/C (second compound 3.16 µM, first compound 0.3 µM): 15.9% | viability, T/C (second compound 3.16 µM, first compound 0.949 µM): 18.5% | viability, T/C (second compound 3.16 µM, first compound 3 µM): 26.7% | viability, T/C (second compound 10 µM, first compound 0.00949 µM): 64.3% | viability, T/C (second compound 10 µM, first compound 0.03 µM): 14.5% | viability, T/C (second compound 10 µM, first compound 0.0949 µM): 13.4% | viability, T/C (second compound 10 µM, first compound 0.3 µM): 14.3% | viability, T/C (second compound 10 µM, first compound 0.949 µM): 15.9% | viability, T/C (second compound 10 µM, first compound 3 µM): 18.5%

CC[C@@]1(O)C(=O)OCc2c1cc1n(c2=O)Cc2cc3c(CN(C)C)c(O)ccc3nc2-1 + Nc1ccc(C#CCN(C(=O)Cc2ncc(C(F)(F)F)cc2C(F)(F)F)c2ccc(F)cc2)nn1
IC50 (second compound 0.0316 µM): 16.9 nM | IC50 (second compound 0.1 µM): 17.3 nM | IC50 (second compound 0.316 µM): 17.9 nM | IC50 (second compound 1 µM): 16.7 nM | IC50 (second compound 3.16 µM): 17.7 nM | IC50 (second compound 10 µM): 17.7 nM | viability, T/C (second compound 0.0316 µM, first compound 0.000316 µM): 95.7% | viability, T/C (second compound 0.0316 µM, first compound 0.001 µM): 103% | viability, T/C (second compound 0.0316 µM, first compound 0.00316 µM): 106% | viability, T/C (second compound 0.0316 µM, first compound 0.01 µM): 84.2% | viability, T/C [1]: 9.5% | viability, T/C [2]: 5.15% | viability, T/C (second compound 0.1 µM, first compound 0.000316 µM): 103% | viability, T/C (second compound 0.1 µM, first compound 0.001 µM): 95.5% | viability, T/C (second compound 0.1 µM, first compound 0.00316 µM): 103% | viability, T/C (second compound 0.1 µM, first compound 0.01 µM): 86.9% | viability, T/C [3]: 9.05% | viability, T/C [4]: 5.15% | viability, T/C (second compound 0.316 µM, first compound 0.000316 µM): 101% | viability, T/C (second compound 0.316 µM, first compound 0.001 µM): 106% | viability, T/C (second compound 0.316 µM, first compound 0.00316 µM): 96.5% | viability, T/C (second compound 0.316 µM, first compound 0.01 µM): 92.5% | viability, T/C [5]: 7.36% | viability, T/C [6]: 9.85% | viability, T/C (second compound 1 µM, first compound 0.000316 µM): 107% | viability, T/C (second compound 1 µM, first compound 0.001 µM): 100% | viability, T/C (second compound 1 µM, first compound 0.00316 µM): 99.6% | viability, T/C (second compound 1 µM, first compound 0.01 µM): 82.9% | viability, T/C [7]: 8.94% | viability, T/C [8]: 5.82% | viability, T/C (second compound 3.16 µM, first compound 0.000316 µM): 101% | viability, T/C (second compound 3.16 µM, first compound 0.001 µM): 98% | viability, T/C (second compound 3.16 µM, first compound 0.00316 µM): 99.8% | viability, T/C (second compound 3.16 µM, first compound 0.01 µM): 89.3% | viability, T/C [9]: 9.67% | viability, T/C [10]: 5.18% | viability, T/C (second compound 10 µM, first compound 0.000316 µM): 104% | viability, T/C (second compound 10 µM, first compound 0.001 µM): 103% | viability, T/C (second compound 10 µM, first compound 0.00316 µM): 93.5% | viability, T/C (second compound 10 µM, first compound 0.01 µM): 87.8% | viability, T/C [11]: 11.9% | viability, T/C [12]: 7.53%

COc1cc(C2c3cc4c(cc3C(OC3OC5COC(C)OC5C(O)C3O)C3COC(=O)C23)OCO4)cc(OC)c1O (stereo unspecified) + Nc1ccc(C#CCN(C(=O)Cc2ncc(C(F)(F)F)cc2C(F)(F)F)c2ccc(F)cc2)nn1
IC50 (second compound 0.0316 µM): 506 nM | IC50 (second compound 0.1 µM): 489 nM | IC50 (second compound 0.316 µM): 514 nM | IC50 (second compound 1 µM): 463 nM | IC50 (second compound 3.16 µM): 486 nM | IC50 (second compound 10 µM): 444 nM | viability, T/C [1]: 106% | viability, T/C [2]: 103% | viability, T/C (second compound 0.0316 µM, first compound 0.316 µM): 76.4% | viability, T/C (second compound 0.0316 µM, first compound 1 µM): 11.7% | viability, T/C (second compound 0.0316 µM, first compound 3.16 µM): 6.31% | viability, T/C (second compound 0.0316 µM, first compound 10 µM): 7.42% | viability, T/C [3]: 103% | viability, T/C [4]: 99.5% | viability, T/C (second compound 0.1 µM, first compound 0.316 µM): 73% | viability, T/C (second compound 0.1 µM, first compound 1 µM): 12% | viability, T/C (second compound 0.1 µM, first compound 3.16 µM): 7.16% | viability, T/C (second compound 0.1 µM, first compound 10 µM): 6.74% | viability, T/C [5]: 104% | viability, T/C [6]: 105% | viability, T/C (second compound 0.316 µM, first compound 0.316 µM): 77.2% | viability, T/C (second compound 0.316 µM, first compound 1 µM): 12.9% | viability, T/C (second compound 0.316 µM, first compound 3.16 µM): 5.81% | viability, T/C (second compound 0.316 µM, first compound 10 µM): 7.82% | viability, T/C [7]: 92.5% | viability, T/C [8]: 95.3% | viability, T/C (second compound 1 µM, first compound 0.316 µM): 68.5% | viability, T/C (second compound 1 µM, first compound 1 µM): 12.6% | viability, T/C (second compound 1 µM, first compound 3.16 µM): 7.75% | viability, T/C (second compound 1 µM, first compound 10 µM): 8.54% | viability, T/C [9]: 100% | viability, T/C [10]: 95.2% | viability, T/C (second compound 3.16 µM, first compound 0.316 µM): 71.3% | viability, T/C (second compound 3.16 µM, first compound 1 µM): 14.6% | viability, T/C (second compound 3.16 µM, first compound 3.16 µM): 5.65% | viability, T/C (second compound 3.16 µM, first compound 10 µM): 8.11% | viability, T/C [11]: 100% | viability, T/C [12]: 96.1% | viability, T/C (second compound 10 µM, first compound 0.316 µM): 66.1% | viability, T/C (second compound 10 µM, first compound 1 µM): 11.5% | viability, T/C (second compound 10 µM, first compound 3.16 µM): 5.67% | viability, T/C (second compound 10 µM, first compound 10 µM): 7.88%
